Calls of active or inactive are those of the source. The calls are words filed in the database; no cut-off is given here.
Assays:
[1] = AUC (0 to infinity) in Sprague-Dawley rat at 20 mg/kg, po measured upto 72 hrs by (LC-MS)/MS analysis; type: ADME, organism-based; conditions: in vivo
[2] = test system: GL261; test: In vivo antitumor activity against […] GL261 cells xenografted in intragastrically dosed C57BL/6 mouse assessed as decrease in tumor size treated for 21 days relative to control; type: functional, organism-based; conditions: route ig, time 21.0 day
[3] = test system: U-87 MG; test: Cytotoxicity activity against human U-87 MG cells assessed as cell viability at 0.5 uM incubated for 48 hrs by CCK-8 assay relative to control; type: functional, U-87MG ATCC; conditions: read-out: Activity
[4] = test system: U-87 MG; test: Induction of cell cycle arrest in human U-87 MG cells assessed as decrease in accumulation of cells at S phase at 0.5 uM incubated for 48 hrs by flow cytometry (reference value: 30.36%); type: functional, U-87MG ATCC; design: scale not given: the % may be the effect or the level left
[5] = target: Programmed cell death 1 ligand 1 (Mus musculus) (UniProt Q9EP73); test: (§1) Binding affinity to recombinant mouse His-tagged PD-L1 expressed in HEK293 cells by SPR analysis
[6] = target: Programmed cell death 1 ligand 1 (Mus musculus, UniProt Q9EP73); test: as §1
[7] = test system: Glioblastoma cell line; test: Antitumor immunity against glioblastoma bearing C57BL/6 mouse model assessed as tumor infiltrating lymphocytes by measuring increase in CD3+CD8+T cells at 100 mg/kg, IG (reference value: 3.44%); type: functional
[8] = In vivo antitumor activity against […] GL261 cells xenografted in C57BL/6 mouse assessed as decrease in EGFR phosphorylation in tumor tissue at 100 mg/kg, IG treated for 21 days relative to control; type: functional; design: scale not given: the % may be the effect or the level left; conditions: time 21 day
[9] = test system: U-87 MG; test: Induction of cell cycle arrest in human U-87 MG cells assessed as decrease in accumulation of cells at S phase at 2 uM incubated for 48 hrs by flow cytometry (reference value: 30.36%); type: functional, U-87MG ATCC; design: scale not given: the % may be the effect or the level left
[10] = test system: U-87 MG; test: Induction of cell cycle arrest in human U-87 MG cells assessed as accumulation of cells at G0/G1 phase at 1 uM incubated for 48 hrs by flow cytometry (reference value: 60.51%); type: functional, U-87MG ATCC
[11] = Ratio of brain to plasma concentration in Sprague-Dawley rat at 5 mg/kg, iv measured after 20 mins; type: ADME, organism-based
[12] = Oral bioavailability in Sprague-Dawley rat at 20 mg/kg measured upto 72 hrs by (LC-MS)/MS analysis; type: ADME, organism-based; conditions: in vivo
[13] = test system: U-87 MG; test: In vitro immunoregulatory effect in IFN-gamma stimulated human U-87 MG cells co-cultured with PHA-P stimulated with human Jurkat T cell assessed as cytotoxicity by measuring cell viability at 0.5 uM incubated for 48 hrs by CCK-8 assay relative to control; type: functional, U-87MG ATCC
[14] = Toxicity in C57BL/6 mouse xenografted with […] GL261 cells assessed as cell necrosis in spleen at 100 mg/kg, IG treated for 21 days by hematoxylin-eosin staining based microscopy assay; type: organism-based; conditions: in vivo, po, 504 h, time 21 day
[15] = AUC (0 to t) in Sprague-Dawley rat at 20 mg/kg, po measured upto 72 hrs by (LC-MS)/MS analysis; type: ADME, organism-based; conditions: in vivo
[16] = Tmax in Sprague-Dawley rat at 20 mg/kg, po measured upto 72 hrs by (LC-MS)/MS analysis; type: ADME, organism-based; conditions: in vivo
[17] = Toxicity in C57BL/6 mouse xenografted with […] GL261 cells assessed as cell necrosis in liver at 100 mg/kg, IG treated for 21 days by hematoxylin-eosin staining based microscopy assay; type: organism-based; conditions: in vivo, po, 504 h, time 21 day
[18] = Clearance in Sprague-Dawley rat at 4 mg/kg, iv measured upto 72 hrs by (LC-MS)/MS analysis; type: ADME, organism-based; conditions: in vivo
[19] = In vivo antitumor activity against […] GL261 cells xenografted in C57BL/6 mouse assessed as tumor growth inhibition (tumor weight decrease) at 50 mg/kg, IG treated for 21 days relative to control; type: functional; conditions: GL261, po, 504 h, time 21 day, read-out: TGI
[20] = Toxicity in C57BL/6 mouse xenografted with […] GL261 cells assessed as cell necrosis in kidney at 100 mg/kg, IG treated for 21 days by hematoxylin-eosin staining based microscopy assay; type: organism-based; conditions: in vivo, po, 504 h, time 21 day
[21] = Volume of distribution in Sprague-Dawley rat at 4 mg/kg, iv measured upto 72 hrs by (LC-MS)/MS analysis; type: ADME, organism-based; conditions: in vivo
[22] = Half life in Sprague-Dawley rat at 20 mg/kg, po measured upto 72 hrs by (LC-MS)/MS analysis; type: ADME, organism-based; conditions: in vivo
[23] = Tmax in Sprague-Dawley rat at 4 mg/kg, iv measured upto 72 hrs by (LC-MS)/MS analysis; type: ADME, organism-based; conditions: in vivo
[24] = In vivo antitumor activity against […] GL261 cells xenografted in C57BL/6 mouse assessed as tumor growth inhibition (tumor volume decrease) at 100 mg/kg, IG treated for 21 days relative to control; type: functional; conditions: GL261, po, 504 h, time 21 day, read-out: TGI
[25] = Toxicity in C57BL/6 mouse xenografted with […] GL261 cells assessed as adverse effect at 50 to 100 mg/kg, IG treated for 21 days; type: organism-based; conditions: in vivo, po, 504 h, dose 50-100 mg/kg, time 21 day
[26] = test system: U-87MG ATCC; test: Effect on total ERK1/2 level in human U-87 MG cells at 0.25 to 2 uM incubated for 48 hrs by Western blot analysis; type: functional, cell-based; conditions: dose 0.25-2 µM
[27] = test system: U-87 MG; test: Induction of cell cycle arrest in human U-87 MG cells assessed as accumulation of cells at G0/G1 phase at 2 uM incubated for 48 hrs by flow cytometry (reference value: 60.51%); type: functional, U-87MG ATCC
[28] = MRT (0 to infinity) in Sprague-Dawley rat at 4 mg/kg, iv measured upto 72 hrs by (LC-MS)/MS analysis; type: ADME, organism-based; conditions: in vivo
[29] = Clearance in Sprague-Dawley rat at 20 mg/kg, po measured upto 72 hrs by (LC-MS)/MS analysis; type: ADME, organism-based; conditions: in vivo
[30] = test system: U-87 MG; test: Induction of cell cycle arrest in human U-87 MG cells assessed as decrease in accumulation of cells at S phase at 1 uM incubated for 48 hrs by flow cytometry (reference value: 30.36%); type: functional, U-87MG ATCC; design: scale not given: the % may be the effect or the level left
[31] = Toxicity in C57BL/6 mouse xenografted with […] GL261 cells assessed as body weight loss at 50 to 100 mg/kg, IG treated for 21 days; type: organism-based; conditions: in vivo, po, 504 h, dose 50-100 mg/kg, time 21 day
[32] = In vivo antitumor activity against […] GL261 cells xenografted in C57BL/6 mouse assessed as decrease in PD-L1 expression in tumor tissue at 100 mg/kg, IG treated for 21 days relative to control; type: functional; design: scale not given: the % may be the effect or the level left; conditions: time 21 day
[33] = cells; conditions: GL261, 72 h
Description: Antiproliferative activity against human GL261 cells incubated for 72 hrs by MTT assay

[34] = test system: U-87 MG; test: cells; conditions: Homo sapiens, 72 h
Description: Antiproliferative activity against human U-87 MG cells incubated for 72 hrs by MTT assay

[35] = Volume of distribution in Sprague-Dawley rat at 20 mg/kg, po measured upto 72 hrs by (LC-MS)/MS analysis; type: ADME, organism-based; conditions: in vivo
[36] = AUC (0 to t) in Sprague-Dawley rat at 4 mg/kg, iv measured upto 72 hrs by (LC-MS)/MS analysis; type: ADME, organism-based; conditions: in vivo
[37] = Toxicity in C57BL/6 mouse xenografted with […] GL261 cells assessed as cell necrosis in lung at 100 mg/kg, IG treated for 21 days by hematoxylin-eosin staining based microscopy assay; type: organism-based; conditions: in vivo, po, 504 h, time 21 day

Sequence of Programmed cell death 1 ligand 1 (Q9EP73 whole entry): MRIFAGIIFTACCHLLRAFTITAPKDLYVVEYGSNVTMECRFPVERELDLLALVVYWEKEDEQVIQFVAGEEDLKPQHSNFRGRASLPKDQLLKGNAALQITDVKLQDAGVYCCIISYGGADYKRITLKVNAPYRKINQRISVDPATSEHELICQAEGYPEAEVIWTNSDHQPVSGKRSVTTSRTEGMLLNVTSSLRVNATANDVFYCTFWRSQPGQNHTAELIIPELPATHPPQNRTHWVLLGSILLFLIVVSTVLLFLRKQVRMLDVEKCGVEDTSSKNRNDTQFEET
Sequence of Programmed cell death 1 ligand 1 (Mus musculus) (Q9EP73 whole entry): as above

## COc1cc2ncnc(Nc3cccc(Cl)c3F)c2cc1OCCCCNCc1c(OC)cc(OCc2cccc(-c3ccccc3)c2C)cc1OC
[1]
  AUC(0-inf): 3240 ng·h/mL
[2]
  Activity: Dose-Dependent Effect
[3]
  viability at 0.5 µM: 96.9%
[4]
  Activity: 28.36%
[5]
  Activity: Dose-Dependent Effect
[6]
  Kd: 520 nM
[7]
  Activity: 14.6%
[8]
  Activity: ~50%
[9]
  Activity: 16.72%
[10]
  Activity: 69.48%
[11]
  BPR: 10%
[12]
  bioavailability: 22.2%
[13]
  Activity: 73.8%
[14]
  Activity: Non-Toxic
[15]
  AUC(0-t) at 72 h: 3150 ng·h/mL
[16]
  Tmax: 3.6 h
[17]
  Activity: Non-Toxic
[18]
  clearance: 25 mL/min/kg
[19]
  inhibition in vivo at 50 mg/kg: 61.4%
[20]
  Activity: Non-Toxic
[21]
  Vd: 13.7 L/kg
[22]
  half-life: 13 h
[23]
  Tmax: 2.4 min
[24]
  inhibition in vivo at 100 mg/kg: 89.4%
[25]
  Activity: Non-Toxic
[26]
  Activity: inactive
[27]
  Activity: 73.98%
[28]
  MRT inf: 12.5 h
[29]
  CL/F: 107 mL/min/kg
[30]
  Activity: 22.89%
[31]
  Activity: Non-Toxic
[32]
  Activity: ~30%
[33]
  IC50: 1190 nM
[34]
  IC50: 770 nM
[35]
  Vd: 123.5 L/kg
[36]
  AUC(0-t) at 72 h: 2830 ng·h/mL
[37]
  Activity: Non-Toxic
